# Measured values: patent US10844049B2, “GLP-1R agonists and uses thereof” (QILU REGOR THERAPEUTICS INC., priority 2018, dated 2020)
# Biological target: GLP1R (Homo sapiens, UniProt P43220)
# Assay: GLP1R cAMP HTRF assay, HEK293/GLP-1R/CRE/Luc (HEK293T cells)
# Format: cell-based
# Details: read-out: EC50
# In short: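 cAMP accumulation via HTRF after 30 min, 37 °C exposure of 1000 receptor-expressing cells/well to compound (0.5% DMSO final) in IBMX (500 μM)/0.1% BSA DPBS.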
# Chain of GLP1R (P43220 24-463): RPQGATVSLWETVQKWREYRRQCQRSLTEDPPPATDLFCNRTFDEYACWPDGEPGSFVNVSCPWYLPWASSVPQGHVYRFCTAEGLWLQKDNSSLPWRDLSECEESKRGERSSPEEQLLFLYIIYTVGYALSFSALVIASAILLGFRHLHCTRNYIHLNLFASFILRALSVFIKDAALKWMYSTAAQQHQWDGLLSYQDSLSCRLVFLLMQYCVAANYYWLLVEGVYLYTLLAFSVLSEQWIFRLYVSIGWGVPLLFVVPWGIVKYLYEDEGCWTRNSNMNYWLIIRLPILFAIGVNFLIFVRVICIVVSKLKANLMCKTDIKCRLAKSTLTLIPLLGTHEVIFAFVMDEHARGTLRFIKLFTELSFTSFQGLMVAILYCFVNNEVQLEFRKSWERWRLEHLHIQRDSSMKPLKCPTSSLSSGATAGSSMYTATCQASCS
row,EC50,SMILES
1,≤ 150 nM,"O=C(O)c1ccc2nc(CN3CC=C(c4ccnc(NCc5ccc(Cl)cc5F)n4)CC3)n(C[C@@H]3CCO3)c2c1 [Compound 125, (S)-2-((4-(2-((4-chloro-2-fluorobenzyl)amino)pyrimidin-4-yl)-3,6-dihydropyridin-1(2H)-yl)methyl)-1-(oxetan-2-ylmethyl)-1H-benzo[d]imidazole-6-carboxylic add]"
2,≤ 150 nM,"O=C(O)c1ccc2nc(CN3CC4CC3CN4c3cccc(OCc4ccc(Cl)cc4F)n3)n(C[C@@H]3CCO3)c2c1 (stereo partly drawn) [Compound 16, 2-((5-(6-((4-chloro-2-fluorobenzyl)oxy)pyridin-2-yl)-2,5-diazabicyclo[2.2.1]heptan-2-yl)methyl)-1-(((S)-oxetan-2-yl)methyl)-1 h-benzo[d]imidazole-6-carboxylic acid]"
3,≤ 1000 nM,"O=C(O)c1ccc2nc(CN3CC=C(c4ccc5c(n4)N(Cc4ccc(Cl)cc4F)C(=O)CO5)CC3)n(C[C@@H]3CCO3)c2c1 [Compound 38, (S)-2-((4-(4-(4-chloro-2-fluorobenzyl)-3-oxo-3,4-dihydro-2 h-pyrido[3,2-b][1,4]oxazin-6-yl)-5,6-dihydropyridin-1(2H)-yl)methyl)-1-(oxetan-2-ylmethyl)-1 h-benzo[d]imidazole-6-carboxylic add]"
4,≤ 150 nM,"O=C(O)c1ccc2nc(CN3CC=C(c4cccc(OCc5ccc(OC(F)(F)F)nc5)n4)CC3)n(C[C@@H]3CCO3)c2c1 [Compound 121, (S)-1-(oxetan-2-ylmethyl)-2-((6-((6-(trifluoromethoxy)pyridin-3-yl)methoxy)-3′,6′-dihydro-[2,4′-bipyridin]-1′(2′H)-yl)methyl)-1H-benzo[d]imidazole-6-carboxylic acid]"
5,≤ 15 nM,"O=C(O)c1ccc2nc(CN3CC=C(c4cccc(OCc5ccc(Cl)cn5)n4)CC3)n(C[C@@H]3CCO3)c2c1 [Compound 116, (S)-2-((6-((5-chloropyridin-2-yl)methoxy)-3′,6′-dihydro-[2H′-bipyridin]-1′(2′H)-yl)methyl)-1-(oxetan-2-ylmethyl)-1H-benzo[d]imidazole-6-carboxylic add]"
6,≤ 15 nM,"O=C(O)c1ccc2nc(CN3CC=C(c4cccc(OCc5ccc(F)cc5)n4)CC3)n(C[C@@H]3CCO3)c2c1 [Compound 157, (S)-2-((6-((4-fluorobenzyl)oxy)-3′,6′-dihydro-[2H′-bipyridin]-1′(2′H)-yl)methyl)-1-(oxetan-2-ylmethyl)-1H-benzo[d]imidazole-6-carboxylic acid]"
7,≤ 15 nM,"O=C(O)c1cc2c(cc1F)nc(CN1CC=C(c3cccc(OCc4ccc(Cl)cc4F)n3)CC1)n2C[C@@H]1CCO1 [Compound 172, (S)-2-((6-((4-chloro-2-fluorobenzyl)oxy)-3′,6′-dihydro-[2H′-bipyridin]-1′(2′H)-yl)methyl)-5-fluoro-1-(oxetan-2-ylmethyl)-1H-benzo[d]imidazole-6-carboxylic acid]"
8,≤ 1000 nM,"O=C(O)c1ccc2nc(CN3CC=C(c4cccc(OC5CCOc6cc(Cl)ccc65)n4)CC3)n(C[C@@H]3CCO3)c2c1 (stereo partly drawn) [Compound 69, 2-((6-((7-chlorochroman-4-yl)oxy)-5′,6′-dihydro-[2,4′-bipyridin]-1′(2′H)-yl)methyl)-1-((S)-oxetan-2-ylmethyl)-1H-benzo[d]imidazole-6-carboxylic add]"
9,≤ 150 nM,"O=C(O)c1ccc2nc(CN3CC=C(c4nccc(OCc5ccc(F)cc5F)n4)CC3)n(C[C@@H]3CCO3)c2c1 [Compound 214, (S)-2-((4-(4-((2,4-difluorobenzyl)oxy)pyrimidin-2-yl)-3,6-dihydropyridin-1(2H)-yl)methyl)-1-(oxetan-2-ylmethyl)-1H-benzo[d]imidazole-6-carboxylic add]"
10,≤ 1000 nM,"O=C(O)c1ccc2nc(CN3CC=C(c4cc(OCc5ccc(Cl)cc5F)c(F)cc4F)CC3)n(C[C@@H]3CCO3)c2c1 [Compound 132, (S)-2-((4-(5-((4-chloro-2-fluorobenzyl)oxy)-2H-difluorophenyl)-3,6-dihydropyridin-1(2H)-yl)methyl)-1-(oxetan-2-ylmethyl)-1H-benzo[d]imidazole-6-carboxylic acid]"
11,≤ 150 nM,"O=C(O)c1ccc2nc(CN3CC=C(c4cccc(OCc5ccc(C#CC6CC6)cc5F)c4)CC3)n(C[C@@H]3CCO3)c2c1 [Compound 199, (S)-2-((4-(3-((4-(cyclopropylethynyl)-2-fluorobenzyl)oxy)phenyl)-3,6-dihydropyridin-1(2H)-yl)methyl)-1-(oxetan-2-ylmethyl)-1H-benzo[d]imidazole-6-carboxylicacid]"
12,≤ 1000 nM,"O=C(O)c1ccc2nc(CN3CC=C(c4ccnc(OCc5ccc(Cl)cc5F)c4)CC3)n(C[C@@H]3CCO3)c2c1 [Compound 31, (S)-2-((2′-((4-chloro-2-fluorobenzyl)oxy)-3,6-dihydro-[4,4′-bipyridin]-1(2H)-yl)methyl)-1-(oxetan-2-ylmethyl)-1H-benzo[d]imidazole-6-carboxylic add]"
13,> 1000 nM,"O=C(O)c1ccc2nc(CN3CCC(N4CCc5ccc(-c6ccc(Cl)cc6F)cc5C4=O)CC3)n(C[C@@H]3CCO3)c2c1 [Compound 54, (S)-2-((4-(7-(4-chloro-2-fluorophenyl)-1-oxo-3,4-dihydroisoquinolin-2(1H)-yl)piperidin-1-yl)methyl)-1-(oxetan-2-ylmethyl)-1 h-benzo[d]imidazole-6-carboxylic acid]"
14,≤ 15 nM,"O=C(O)c1ccc2nc(CN3CC=C(c4cccc(OCc5ccc(Cl)cc5F)n4)CC3)n(C[C@@H]3CCO3)c2c1F [Compound 171, (S)-2-((6-((4-chloro-2-fluorobenzyl)oxy)-3′,6′-dihydro-[2,4′-bipyridin]-1′(2′H)-yl)methyl)-7-fluoro-1-(oxetan-2-ylmethyl)-1H-benzo[d]imidazole-6-carboxylic acid]"
15,≤ 150 nM,"O=C(O)c1ccc2nc(CN3CC=C(c4cccc(N5CCc6cc(Cl)ccc6C5)n4)CC3)n(C[C@@H]3CCO3)c2c1 [Compound 39, (S)-2-((6-(6-chloro-3,4-dihydroisoquinolin-2(1H)-yl)-3′,6′-dihydro-[2,4′-bipyridin]-1′(2′H)-yl)methyl)-1-(oxetan-2-ylmethyl)-1 h-benzo[d]imidazole-6-carboxylic add]"
16,≤ 150 nM,"O=C(O)c1ccc2nc(CN3CCC(F)(c4cccc(OCc5ccc(Cl)cc5F)n4)CC3)n(C[C@@H]3CCO3)c2c1 [Compound 67, (S)-2-((4-(6-(4-chloro-2-fluorobenzyloxy)pyridin-2-yl)-4-fluoropiperidin-1-yl)methyl)-1-(oxetan-2-ylmethyl)-1H-benzo[d]imidazole-6-carboxylic acid]"
17,> 1000 nM,"O=C(O)c1ccc2nc(CN3CCN(c4ccc5c(n4)N(Cc4ccc(Cl)cc4F)CCO5)CC3)n(C[C@@H]3CCO3)c2c1 [Compound 4, (S)-2-((4-(4-(4-chloro-2-fluorobenzyl)-3H-dihydro-2H-pyrido[3,2-b][1H]oxazin-6-yl)piperazin-1-yl)methyl)-1-(oxetan-2-ylmethyl)-1H-benzo[d]imidazole-6-carboxylic acid]"

row,SMILES,EC50
1,"O=C(O)c1ccc2nc(CN3CCC(n4c(=O)n(CCc5ccc(Cl)cc5F)c5ccccc54)CC3)n(C[C@@H]3CCO3)c2c1 [Compound 52, (S)-2-((4-(3-(4-chloro-2-fluorophenethyl)-2-oxo-2,3-dihydro-1 h-benzo[d]imidazol-1-yl)piperidin-1-yl)methyl)-1-(oxetan-2-ylmethyl)-1 h-benzo[d]imidazole-6-carboxylic acid]",> 1000 nM
